Source: patent US20040209859A1, “Fused cycloalkyl amides and acids and their therapeutic applications” (priority 2002, published 2004)

Row | melting point [°C] | Structure (SMILES)
1 | 121.5 to 122.5 | CC1(C)[C@@H]2CC3[C@H](C(N)=O)[C@@]3(C)C[C@@H]21 (stereo partly drawn) [Example 3, (1S,3S,4S,7R)-3,8,8-trimethyltricyclo[5.1.0.0^3,5]octane-4-carboxamide]
2 | 169.2 to 169.7 | CC1(C)[C@@H]2CC3[C@H](C(=O)NCC(N)=O)[C@@]3(C)C[C@@H]21 (stereo partly drawn) [Example 4, (1S,3S,4S,7R)-N-(2-amino-2-oxoethyl)-3,8,8-trimethyltricyclo [5.1.0.0^3,5]octane-4-carboxamide]
3 | 86 | CC1(C)[C@@H]2CC3[C@H](C(=O)O)[C@@]3(C)C[C@@H]21 (stereo partly drawn) (hydrate or solvate) [Example 1, (1S,3S,4S,7R)-3,8,8-trimethyltricyclo[5.1.0.0^3,5]octane-4-carboxylic acid]
